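Assay format: 96-well plates, 48-hour exposure. The concentration for full growth arrest is given as TGI.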
Tests used:
Experiment in all cases: NCI anticancer screen, dose series, 48 h
T-47D breast = system: T-47D breast
HL-60(TB) leukemia = system: HL-60(TB) leukemia
HCC-2998 colon = system: HCC-2998 colon
NCI-H23 lung = system: NCI-H23 lung
MDA-MB-231 breast = system: MDA-MB-231 breast
BT-549 breast = system: BT-549 breast
SF-268 CNS = system: SF-268 CNS
LOX IMVI melanoma = system: LOX IMVI melanoma
SK-MEL-5 melanoma = system: SK-MEL-5 melanoma
MCF7 breast = system: MCF7 breast
IGROV1 ovarian = system: IGROV1 ovarian
786-0 renal = system: 786-0 renal
SN12C renal = system: SN12C renal
SNB-19 CNS = system: SNB-19 CNS
NCI/ADR-RES ovarian = system: NCI/ADR-RES ovarian
HOP-62 NSCLC = system: HOP-62 NSCLC
SW-620 colon = system: SW-620 colon
SR leukemia = system: SR leukemia
UACC-62 melanoma = system: UACC-62 melanoma
HCT-15 colon = system: HCT-15 colon
A498 renal = system: A498 renal
HT29 colon = system: HT29 colon
KM12 colon = system: KM12 colon
MOLT-4 leukemia = system: MOLT-4 leukemia
HCT-116 colon = system: HCT-116 colon
U251 CNS = system: U251 CNS
OVCAR-5 ovarian = system: OVCAR-5 ovarian
EKVX NSCLC = system: EKVX NSCLC
SK-MEL-2 melanoma = system: SK-MEL-2 melanoma
OVCAR-3 ovarian = system: OVCAR-3 ovarian
RXF 393 renal = system: RXF 393 renal
NCI-H226 lung = system: NCI-H226 lung
MALME-3M melanoma = system: MALME-3M melanoma
SF-295 CNS = system: SF-295 CNS
K-562 leukemia = system: K-562 leukemia
TK-10 renal = system: TK-10 renal
SK-MEL-28 melanoma = system: SK-MEL-28 melanoma
ACHN renal = system: ACHN renal
UO-31 renal = system: UO-31 renal
COLO 205 colon = system: COLO 205 colon
UACC-257 melanoma = system: UACC-257 melanoma
RPMI-8226 leukemia = system: RPMI-8226 leukemia
SK-OV-3 ovarian = system: SK-OV-3 ovarian
OVCAR-8 ovarian = system: OVCAR-8 ovarian
MDA-N = system: MDA-N
NCI-H460 lung = system: NCI-H460 lung
DU-145 prostate = system: DU-145 prostate
OVCAR-4 ovarian = system: OVCAR-4 ovarian
M14 melanoma = system: M14 melanoma
CCRF-CEM leukemia = system: CCRF-CEM leukemia
A549 NSCLC = system: A549 NSCLC
NCI-H522 lung = system: NCI-H522 lung
MDA-MB-435 = system: MDA-MB-435
SF-539 CNS = system: SF-539 CNS
SNB-75 CNS = system: SNB-75 CNS
CAKI-1 renal = system: CAKI-1 renal
PC-3 prostate = system: PC-3 prostate
HS 578T breast = system: HS 578T breast
HOP-92 NSCLC = system: HOP-92 NSCLC

Measured: TGI

O=C(O)CCc1ccc2c(c1)C(=O)CC2
not listed: SNB-75 CNS | CAKI-1 renal | PC-3 prostate | HS 578T breast | HOP-92 NSCLC
> 100 µM: all other assays above

O=C1NC(=O)C2(CCCCCC2)N1
not listed: HL-60(TB) leukemia | HCC-2998 colon | SR leukemia
> 100 µM: all other assays above

— PubChem BioAssay (NCI)
